Publication PMC4821856, “Novel Anti-Campylobacter Compounds Identified Using High Throughput Screening of a Pre-selected Enriched Small Molecules Library” (Frontiers in Microbiology, 2016)

What was measured:
C. jejuni 81–176 [1] = assay: Single step resistance assay at lethal dose (5X MIC) on solid media; assay type: cell-based, Campylobacter jejuni; conditions: solid MH agar with 5X MIC, 5 days, 42°C; resistant colonies observed yes/no
Protocol: (§1) Single step and sequential passage resistance assays were performed as described previously with a few modifications (Ling et al., [2015]; Xu et al., [2015]). The top 12 hit compounds were tested in this experiment. The MIC values for each of these 12 compound as determined in above assay was used for C. jejuni resistance studies using lethal (5X MIC) and sub-lethal (0.5X MIC) concentrations.
Campylobacter jejuni grown in MH medium overnight at 42°C was centrifuged at 4700 × g for 10 min at room temperature. The supernatant was discarded and the bacteria were resuspended in MH broth to an OD600 of 1.0 (~1 × 10^9 CFU). Compounds (5X MIC) were mixed with 5 ml of molten MH agar medium and transferred immediately onto small 35 mm petri-plates, agar in the plate was allowed to solidify in the dark. Ten micro liter of culture was transferred to the small molecule containing plates and spread using sterile beads, plates were incubated at 42°C for 5 days in the dark. Bacteria spread on MH agar with 50 μg/mL kanamycin or MH agar alone, were used as positive and negative controls, respectively. After 5 days of incubation, any colonies that developed were assessed for resistance to the test compounds by determining MIC and the MBC as noted above.
(§2) Our rationale for performing the resistance studies was to determine the ability of C. jejuni strain to develop resistance to these compounds when cultured on solid media with a lethal dose (5X MIC) or in liquid media with a sub-lethal dose (0.5X MIC). The presence of resistant colonies in any of these assays would reduce the attractiveness of the relevant small molecule while an absence of resistant colonies would indicate a likely inability of C. jejuni to develop resistance in general. […] Since C. jejuni is the major cause of human campylobacteriosis (95% of the cases); (Butzler, [2004]) and due to limitation of compounds availability, we only performed resistance studies on C. jejuni 81–176. However, for future commercial application of these antimicrobials, more in-depth characterization of potential resistance by other C. jejuni strains and C. coli is warranted.

C. jejuni 81–176 [2] = assay: Sequential passage resistance assay at sub-lethal dose (0.5X MIC), 15 passages; assay type: cell-based, Campylobacter jejuni; conditions: liquid MH with 0.5X MIC
Protocol: as §1
Overnight grown C. jejuni 81–176 culture was washed and suspended in MH broth to an OD600 of 0.05 (~10^7 CFU). Five milli liter of the OD adjusted fresh culture was mixed with 0.5X MIC of the relevant test compound (concentration allowing > 50% growth inhibition). Campylobacter jejuni cultured in 20 μg/mL chloramphenicol, or 50 μg/mL kanamycin, or 2% DMSO, or non-amended MH broth were used as controls. The bacteria were incubated at 42°C with shaking at 200 rpm for 24 h in the dark. Following incubation, cultures were centrifuged at 4700 × g for 10 min at room temperature. The supernatant was discarded; bacteria were resuspended in 5 ml of fresh MH containing 0.5X MIC of the same small molecule. This procedure was repeated 14 times. Following 15 passages, bacterial suspensions were assessed for resistance to the test compound by plating on MH media containing 1X MIC of small molecules.
as §2

[3] = Cytotoxicity by LDH release; assay type: cell-based, human; conditions: human, Caco-2 cells, 24 h, LDH release, no FBS
Protocol: (§3) We evaluated 12 selected compounds for cytotoxicity to Caco-2 (human colonic carcinoma) cells as described previously (Xu et al., [2015]). The Caco-2 cells were obtained from the American Type Culture Collection (ATCC Rockville, MD) and maintained in minimal essential medium (MEM) supplemented with 20% fetal bovine serum (FBS), 1% non-essential amino acid (NEAA; Life Technologies, NY) and with 1 mM sodium pyruvate at 37°C in a humidified 5% CO2 incubator. A 96-well tissue culture plate was seeded with approximately 1.4 × 10^5 cells per well and incubated for 24 h at 37°C in an incubator until a confluent monolayer formed. It was necessary to assess the dose dependent cytotoxicity effect of DMSO as compounds were diluted in DMSO therefore, we determined the cytotoxic effect of varying concentrations of the DMSO vehicle control (1, 2, and 5%) in Caco-2 cells containing 150 μL of media (without FBS) incubated at 24 h. There was no significant difference among the varying DMSO concentrations and their cytotoxicity values. Therefore, we used 1% DMSO in duplicate wells along with other appropriate controls for cytotoxicity experiment.
(§4) It is likely that the compounds can bind to serum proteins (FBS) present in the media and thus influence the true cytotoxic effect of the compounds; therefore, we performed the cytotoxicity assay in absence of FBS. The cytotoxicity assay was performed according to manufacturer instructions (Pierce TM; Thermo Scientific, IL) and the percentage of cytotoxicity was calculated by measuring the release of lactate dehydrogenase (LDH) enzyme from the treated cells. Briefly, ~1.4 × 10^5 cells were grown in a 96-well tissue culture plate containing 150 μL of growth medium. After three washes with medium without supplementation, 1 μL (200 μM) of compound was added to duplicate wells and incubated for 24 h at 37°C in a humidified, 5% CO2 incubator. Subsequently, 50 μL of supernatants were collected for measuring LDH release and the degree of cytotoxicity was determined according to the manufacturer instructions.
(§5) Three independent experiments were conducted in duplicate samples in each experiment and the average cytotoxicity values were plotted.

[4] = tested on: Caco-2 (human colonic carcinoma) cells; assay: Cytotoxicity by LDH release; assay type: cell-based; conditions: Caco-2 cells, 200 μM; for Cytotoxicity (%): 24 h, LDH release, no FBS
Protocol: as §3, §4, §5

SMILES	Resistance, single step 5X MIC (C. jejuni 81–176 [1])	Resistance, passage 0.5X MIC (C. jejuni 81–176 [2])	cytotoxicity at 24 h, 200 µM [3] [%]	Relative cytotoxicity among the 12 compounds [4]	Cytotoxicity (%) [4] [%]
O=S(=O)(Nc1cccc(C(F)(F)F)c1)c1ccc(Br)cc1 [Comp 1]	No	No	30.3	highest cytotoxicity	–
COc1ccc(CN2CCN(c3ccc(F)cc3)CC2)cc1C [Comp 2]	No	No	≤ 10	–	6.9
CN(C)c1ccc(CN2CCN(c3ccccc3Cl)CC2)cc1 [Comp 3]	No	No	11.3	–	–
Clc1ccc(N2CCN(Cc3ccsc3)CC2)cc1 [Comp 4]	No	No	–	–	4.6
Cc1ccc(N2CCN(C/C=C/c3ccccc3)CC2)cc1 [Comp 5]	No	No	≤ 10	–	6.5
O=c1c(Cl)c(Cl)cnn1-c1ccccc1Cl [Comp 7]	No	No	28	–	–
Cc1c(C(C)NCc2cccc(OC3CCCC3)c2)cnn1-c1ccccc1 (centres unmarked) [Comp 10]	No	No	27.8	–	–
COc1ccc(CNCc2ccc(Cl)s2)cc1OCC(O)CN1CCCC1 (centres unmarked) [Comp 12]	No	No	–	least cytotoxic	0
CN(Cc1cccc2cnccc12)CC1CCCN(CCc2ccc(F)cc2)C1 (centres unmarked) [Comp 13]	No	No	–	least cytotoxic	0
CN(CC(O)COc1ccccc1CNC1(c2ccccc2)CC1)C1CCCCC1 (centres unmarked) [Comp 17]	No	No	16.6	–	–
CN(Cc1ccccc1)CC1CCCN(CCc2ccc(F)cc2)C1 (centres unmarked) [Comp 18]	No	No	8.8	–	–
CC(=O)Nc1ccc(CN(C)CC2CCCN(CCc3cccc(C(F)(F)F)c3)C2)cc1 (centres unmarked) [Comp 22]	No	No	12.1	–	–
